Experimental data as given in patent US10849901B2, “Arf6 inhibitors and methods of synthesis and use thereof” (Navigen, Inc., priority 2014, dated 2020).
“Also recorded” adds a separate entry of the source. Where two headings read alike, the source gives them in different places.

How the values were obtained:
[1] = test system: LOX melanoma cells; test: Cell proliferation assay (WST-8), LOX; assay type: cell-based; settings: concentrations greater than 1 μM
Source text: (§1) Cell proliferation assay: This assay employs WST-8 colorimetric readout (Dojindo) and relies on the total activity of mitochondrial dehydrogenases as a measure of the number of viable cells over time.

[2] = molecular target: Arf6 (Homo sapiens (Human), UniProt P62330); test: Fluorometric assay for Arf6 nucleotide exchange catalyzed by ARNO Sec7 domain (GTP-BODIPY FL); assay type: biochemical
[3] = test system: LN-229 glioblastoma cells; test: Cell proliferation assay (WST-8), LN-229; assay type: cell-based; settings: concentrations greater than 1 μM
Source text: as §1

[4] = molecular target: Arf6 (Mus musculus (Mouse), UniProt P62331); test: Arf6 pulldown assay (GTP-bound Arf6, GST-Gga3, Western blot); assay type: cell-based; settings: NIH3T3 cells, 4 hours incubation
Method: The cell cultures were incubated in the presence of test compounds for 4 hours followed by pull-down of GTP-bound Arf6 from cell lysates using recombinant GST-Gga3 immobilized on glutathione agarose and Western blot analysis.
Arf6 pulldown assay: Assessment of intracellular levels of active Arf6 may be a direct mechanism-based approach for monitoring on-target cellular activities of active Arf6 inhibitors. A commercially available pull-down technique, which relies on recombinant Gga3 protein as a sensor of the GTP-bound state for the members of Arf protein family, can be employed for this purpose (see, e.g., Shiba T, Kawasaki M, Takatsu H, Nogi T, Matsugaki N, Igarashi N, Suzuki M, Kato R, Nakayama K, Wakatsuki S. Molecular mechanism of membrane recruitment of GGA by ARF in lysosomal protein transport. Nat Struct Biol. 2003 May; 10(5):386-93).
The vendor's procedure was modified from 10-cm culture dish to 24-well plate format and adapted to a number of different cell lines, including cultured mouse embryonic fibroblasts NIH 3T3 due to its robust response to Arf6 inhibitors observed in the proof-of-principle studies (see FIG. 2).

[5] = test system: Choroidal Neovascularization (CNV); test: Laser-induced choroidal neovascularization (CNV) in mice; assay type: in vivo; settings: 5 μg, 0.5 μg and 0.05 μg on Days 0 and 7, measured Day 14
Method: In the experiment on Day 0, the Bruch's membrane of each eye was disrupted with a laser. On Days 0 and 7, test compounds were administered, and on Day 14, the area of CNV was measured. Commercially available compound SU4312 was used as a positive control. Compound 38 was dosed at 5 μg, 0.5 μg, and 0.05 μg, as noted in FIG. 9.

[6] = test system: VEGF-induced retinal permeability; test: VEGF-induced retinal permeability in rats (Evans blue dye); assay type: in vivo; settings: rats; Compound 38 60 mg/kg IP, Avastin 200 μg intraocular (FIG. 8)
Method: In the experiment, VEGF (500 ng) and Avastin (200 μg) were given to rats in a single intraocular injection on Day 1. Compound 38 (60 mg/kg) was administered by IP injection 1 hour prior to VEGF on Day 1. Rats were given Evans blue dye (EBD) via IV infusion on Day 2, and the retinas were harvested after an additional 1.5 hours. The retinas were dissected and incubated overnight in formamide. Vascular leak was calculated on Day 3.

[7] = test system: VEGF-induced retinal permeability; test: VEGF-induced retinal permeability in mice (Evans blue dye); assay type: in vivo; settings: mice
Method: (§2) In the experiment, VEGF (50 ng) and either Compound 38 or 65 (500 ng) or NAV-3745 (500 ng) were given to mice in a single intraocular injection. Evans blue dye (EBD) was given via IV approximately 6 hours after the injection, and the retinas were harvested after an additional 2 hours. Retinal permeability was measured on Day 2 after an overnight extraction of EBD in formamide, at OD 620-740 nm.
as §2, with “the test compound” for “either Compound 38 or 65 (500 ng) or NAV-3745 (500 ng)”, “injection. Avastin was given at a dose of 20 μg, Compound 38 at either 50 ng or 500 ng (as noted in FIG. 7), and SU4312 at 5 μg. As with the previous experiment,” for “injection.”

[8] = test system: LPS-induced acute lung injury; test: LPS-induced acute lung injury in mice (BALF analysis); assay type: in vivo; settings: 24 hours after LPS, Compound 38 60 mg/kg, dexamethasone 5 mg/kg
Method: In the experiment, LPS (5 mg/kg) was given by intra-tracheal instillation. Dexamethasone (5 mg/kg) was given as a positive control 2 hours after the LPS. Bronchoalveolar fluid (BALF) was analyzed for cell count and protein 24 hours after the LPS.

[9] = test system: LOX melanoma cells; test: Cell invasion assay (Matrigel Invasion Chambers); assay type: cell-based
Source text: Cell invasion assay: This assay uses Matrigel Invasion Chambers (BD Biosciences) and monitors cell penetration through 8.0 μm filters coated with a solubilized basement membrane matrix, which serves as barrier for non-invading cells (see, e.g., Albini A, Iwamoto Y, Kleinman H K, Martin G R, Aaronson S A, Kozlowski J M, McEwan R N. A rapid in vitro assay for quantitating the invasive potential of tumor cells. Cancer Res. 1987 Jun. 15; 47(12):3239-45).

[10] = test system: oxygen-induced retinopathy; test: Oxygen-induced retinopathy (OIR) in mice; assay type: in vivo; settings: 5 μg intraocular Days 12 and 15, measured Day 17
Method: In the experiment, mice pups were placed in a 75% oxygen environment from Days 5-12. The mice were returned to a normal oxygen environment on Day 13. The test compounds were administered (5 μg) by intraocular injection on Days 12 and 15, and the area of neovascularization was measured on Day 17. Compound 38 was compared with SU4312 in oxygen-induced retinopathy (OIR) in mice (see FIG. 11). […]

[11] = test system: H1N1 virus; settings: IP QD five days; Compound 65 20 mg/kg, ribavirin 75 mg/kg
[12] = 20 nM Arf6 assay, read-out: IC50 (μM) 20 nM Arf6
[13] = 200 nM Arf6 assay, read-out: IC50 (μM) 200 nM Arf6
[14] = 500 ng single intraocular injection with VEGF 50 ng (FIG. 6)

Chain of Arf6 (Homo sapiens (Human), UniProt P62330) (P62330 14-175): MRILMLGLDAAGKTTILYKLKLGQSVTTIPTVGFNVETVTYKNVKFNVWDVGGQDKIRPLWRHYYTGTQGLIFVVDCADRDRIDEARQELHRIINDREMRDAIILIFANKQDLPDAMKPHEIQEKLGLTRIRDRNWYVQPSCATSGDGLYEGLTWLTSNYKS
Chain of Arf6 (Mus musculus (Mouse), UniProt P62331) (P62331 whole entry): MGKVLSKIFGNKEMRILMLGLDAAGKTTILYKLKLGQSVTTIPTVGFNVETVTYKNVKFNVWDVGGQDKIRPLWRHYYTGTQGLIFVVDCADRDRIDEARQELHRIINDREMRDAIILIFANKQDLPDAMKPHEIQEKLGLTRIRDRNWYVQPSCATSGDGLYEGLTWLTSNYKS

Question: Which results are given for O=c1cc(-c2ccc([N+](=O)[O-])cc2)[nH]c2c(-c3ccc(Cl)cc3)c(Cc3ccccc3)nn12 [Compound 38]?
Answer: inhibition of LOX cell proliferation [1]: can inhibit proliferation; also recorded: potent inhibitor; IC50 [2, 12]: 1.8 µM; IC50 [2, 13]: 1.4 µM; inhibition of LN-229 cell proliferation [3]: can inhibit proliferation; also recorded: potent inhibitor; Inhibition of Arf6 activation (GTP-bound Arf6) [4]: Inhibition of Arf6 activation; area of CNV [5]: reduced the area of CNV in a dose-dependent manner; VEGF-induced retinal permeability [6]: reduced VEGF-induced retinal permeability; VEGF-induced retinal permeability [7, 14]: reduced VEGF-induced retinal permeability; VEGF-induced retinal permeability ([7]; single intraocular injection, Compound 38 50 ng or 500 ng, Avastin 20 μg, SU4312 5 μg (FIG. 7)): reduced VEGF-induced retinal permeability; number of cells in the lung fluid (BALF) [8]: reduced the number of cells; protein concentration in the lung fluid (BALF) [8]: reduced; FBS-induced LOX cell invasion through Matrigel ([9]; 1 μM): substantially inhibit, or completely inhibit; inhibition of melanoma cell invasion ([9]; LOX melanoma cells): can inhibit invasion; also recorded: more potent inhibitor of melanoma cell invasion than SecinH3; area of neovascularization [10]: reduced the area of neovascularization

Question: How did the “mortality of mice infected with H1N1 virus” value [11] turn out when O=c1cc(Cc2ccccc2)[nH]c2c(-c3ccc(Cl)cc3)c(C(F)(F)F)nn12 [Compound 65] was run?
Answer: Its value is “reduced the mortality of mice nearly as well as ribavirin”.

Question: And the IC50 [2, 12]?
Answer: The IC50 was 3.7 µM.

Question: And the IC50 [2, 13]?
Answer: Its IC50 is 4.9 µM.

Question: And the VEGF-induced retinal permeability [7, 14]?
Answer: Its VEGF-induced retinal permeability is “reduced VEGF-induced retinal permeability”.
